# From article PMC10475565 (2023)
# Legend:
# [1] = test system: d(T3G4T3) (DNA, G4) TTTGGGGTTT; test: ITC; details: 60 mM KCl; 10 mM sodium cacodylate, 0.5 mM EDTA, pH 7.0, 20 °C; one binding event, isotherm not fitted
# [2] = test system: d(UG4T) (DNA, G4, 2'-deoxyuridine at 1) UGGGGT; test: ITC; details: 60 mM KCl; 10 mM sodium cacodylate, 0.5 mM EDTA, pH 7.0, 20 °C
# [3] = test system: CEB1 (DNA, G4) AGGGGGGAGGGAGGGTGG; test: ITC; details: 60 mM KCl; 10 mM sodium cacodylate, 0.5 mM EDTA, pH 7.0, 20 °C
# d(TG4T) (DNA, G4) TGGGGT [4] = test: ITC; details: 60 mM KCl, 10 mM sodium cacodylate, 0.5 mM EDTA, pH 7.0, 20 °C
# [5] = test system: d(T4G4T4) (DNA, G4) TTTTGGGGTTTT; test: ITC; details: 90 mM KCl; 10 mM sodium cacodylate, 0.5 mM EDTA, pH 7.0, 20 °C; one binding event, isotherm not fitted
# [6] = test system: d(T2G4T2) (DNA, G4) TTGGGGTT; test: ITC; details: 60 mM KCl; 10 mM sodium cacodylate, 0.5 mM EDTA, pH 7.0, 20 °C
# d(TG4T) (DNA, G4) TGGGGT [7] = test: fluorescent intercalator displacement; details: 10 mM sodium cacodylate, 0.5 mM EDTA, pH 7.0, 21-23 °C, thiazole orange displaced, 1 μM neomycin, 1 μM quadruplex
binding [1],Ka [2],association constant [3],"Ka1 (d(TG4T) (DNA, G4) TGGGGT [4]; site 1 of 2)",binding [5],Ka [6],"% fluorescence change (d(TG4T) (DNA, G4) TGGGGT [7]; 30 mM NaCl)","% fluorescence change (d(TG4T) (DNA, G4) TGGGGT [7]; 60 mM KCl)","binding (d(TG4T) (DNA, G4) TGGGGT [4]; isotherm could not be fitted, 300 μM titrant)",SMILES
yes,1.23 ± 0.05 × 10^6 M^-1,723000 M⁻¹,2.10 ± 0.80 × 10^8 M^-1,yes,59000 M⁻¹,~ 25%,~ 15%,,NC[C@@H]1O[C@H](O[C@H]2[C@@H](O)[C@H](O[C@@H]3[C@@H](O)[C@H](N)C[C@H](N)[C@H]3O[C@H]3O[C@H](CN)[C@@H](O)[C@H](O)[C@H]3N)O[C@@H]2CO)[C@H](N)[C@@H](O)[C@@H]1O
,,,,,,,,weak,NC[C@@H]1O[C@H](O[C@H]2[C@@H](O)[C@H](O[C@@H]3[C@@H](O)[C@H](N)C[C@H](N)[C@H]3O[C@H]3O[C@H](CO)[C@@H](O)[C@H](O)[C@H]3N)O[C@@H]2CO)[C@H](N)[C@@H](O)[C@@H]1O
